In ChEMBL document CHEMBL4706534, “1,2,3-Triazole-containing hybrids with potential antibacterial activity against methicillin-resistant Staphylococcus aureus (MRSA)” (Eur J Med Chem, 2020):
Converted amounts (≈) assume the structure as drawn.

How the values were obtained:
Staphylococcus aureus [1] = assay: Antibacterial activity against Methicillin-resistant Staphylococcus aureus ATCC 33591; type: functional, organism-based
Staphylococcus aureus [2] = assay: Antibiofilm activity against methicillin-resistant Staphylococcus aureus ATCC BAA-44 incubated for 24 hrs by crystal violet-staining based assay; type: functional, organism-based; settings: ATCC BAA-44, 24 h
Staphylococcus aureus [3] = assay: Potentiation of oxacillin-induced antibacterial activity against methicillin-resistant Staphylococcus aureus ATCC BAA-44 assessed as reduction in oxacillin MIC preincubated for 30 mins followed by oxacillin addition and measured after 16 hrs by broth microdilution method; type: functional; settings: time 16.5 hrs

| SMILES | MIC (Staphylococcus aureus [1]) [µg/mL] | IC50 (Staphylococcus aureus [2]) [nM] | fold change (FC) (Staphylococcus aureus [3]) |
| --- | --- | --- | --- |
| CN[C@H](CC(C)C)C(=O)N[C@@H]1Cc2ccc(c(Cl)c2)Oc2cc3cc(c2O[C@@H]2O[C@H](CO)[C@@H](O)[C@H](O)[C@H]2O[C@H]2C[C@](C)(N)[C@H](O)[C@H](C)O2)Oc2ccc(cc2Cl)[C@@H](O)[C@@H]2NC(=O)[C@H](NC(=O)[C@@H]3NC(=O)[C@H](CC(=O)O)NC1=O)c1ccc(O)c(c1)-c1c(O)cc(O)cc1[C@H](C(=O)NCCCCCc1cn(CCCCNC(=O)[C@@H]3NC(=O)[C@H]4NC(=O)[C@H](NC(=O)[C@@H]5NC(=O)[C@H](CC(=O)O)NC(=O)[C@H](NC(=O)[C@@H](CC(C)C)NC)Cc6ccc(c(Cl)c6)Oc6cc5cc(c6O[C@@H]5O[C@H](CO)[C@@H](O)[C@H](O)[C@H]5O[C@H]5C[C@](C)(N)[C@H](O)[C@H](C)O5)Oc5ccc(cc5Cl)[C@H]4O)c4ccc(O)c(c4)-c4c(O)cc(O)cc43)nn1)NC2=O | 1.3 (≈ 0.425 µM) | – | – |
| CN[C@H](CC(C)C)C(=O)N[C@@H]1Cc2ccc(c(Cl)c2)Oc2cc3cc(c2O[C@@H]2O[C@H](CO)[C@@H](O)[C@H](O)[C@H]2O[C@H]2C[C@](C)(N)[C@H](O)[C@H](C)O2)Oc2ccc(cc2Cl)[C@@H](O)[C@@H]2NC(=O)[C@H](NC(=O)[C@@H]3NC(=O)[C@H](CC(=O)O)NC1=O)c1ccc(O)c(c1)-c1c(O)cc(O)cc1[C@H](C(=O)NCCCCCc1cn(CCNC(=O)[C@@H]3NC(=O)[C@H]4NC(=O)[C@H](NC(=O)[C@@H]5NC(=O)[C@H](CC(=O)O)NC(=O)[C@H](NC(=O)[C@@H](CC(C)C)NC)Cc6ccc(c(Cl)c6)Oc6cc5cc(c6O[C@@H]5O[C@H](CO)[C@@H](O)[C@H](O)[C@H]5O[C@H]5C[C@](C)(N)[C@H](O)[C@H](C)O5)Oc5ccc(cc5Cl)[C@H]4O)c4ccc(O)c(c4)-c4c(O)cc(O)cc43)nn1)NC2=O | 1.3 (≈ 0.429 µM) | – | – |
| CCCCCCCCCCCC/C=C(/C)Cn1cc(CCCCCc2nc(N)[nH]c2-c2ccccc2)nn1 | – | 1420 | 2 |
| COc1ccc(-c2[nH]c(N)nc2CCCCCc2cn(C/C(C)=C\c3ccccc3)nn2)cc1 | – | 1340 | 2 |
| CN[C@H](CC(C)C)C(=O)N[C@@H]1Cc2ccc(c(Cl)c2)Oc2cc3cc(c2O[C@@H]2O[C@H](CO)[C@@H](O)[C@H](O)[C@H]2O[C@H]2C[C@](C)(N)[C@H](O)[C@H](C)O2)Oc2ccc(cc2Cl)[C@@H](O)[C@@H]2NC(=O)[C@H](NC(=O)[C@@H]3NC(=O)[C@H](CC(=O)O)NC1=O)c1ccc(O)c(c1)-c1c(O)cc(O)cc1[C@H](C(=O)NCCCCCCn1cc(CCCNC(=O)[C@@H]3NC(=O)[C@H]4NC(=O)[C@H](NC(=O)[C@@H]5NC(=O)[C@H](CC(=O)O)NC(=O)[C@H](NC(=O)[C@@H](CC(C)C)NC)Cc6ccc(c(Cl)c6)Oc6cc5cc(c6O[C@@H]5O[C@H](CO)[C@@H](O)[C@H](O)[C@H]5O[C@H]5C[C@](C)(N)[C@H](O)[C@H](C)O5)Oc5ccc(cc5Cl)[C@H]4O)c4ccc(O)c(c4)-c4c(O)cc(O)cc43)nn1)NC2=O | 1.3 (≈ 0.425 µM) | – | – |
| CN[C@H](CC(C)C)C(=O)N[C@@H]1Cc2ccc(c(Cl)c2)Oc2cc3cc(c2O[C@@H]2O[C@H](CO)[C@@H](O)[C@H](O)[C@H]2O[C@H]2C[C@](C)(N)[C@H](O)[C@H](C)O2)Oc2ccc(cc2Cl)[C@@H](O)[C@@H]2NC(=O)[C@H](NC(=O)[C@@H]3NC(=O)[C@H](CC(=O)O)NC1=O)c1ccc(O)c(c1)-c1c(O)cc(O)cc1[C@H](C(=O)NCCn1cc(CNC(=O)[C@@H]3NC(=O)[C@H]4NC(=O)[C@H](NC(=O)[C@@H]5NC(=O)[C@H](CC(=O)O)NC(=O)[C@H](NC(=O)[C@@H](CC(C)C)NC)Cc6ccc(c(Cl)c6)Oc6cc5cc(c6O[C@@H]5O[C@H](CO)[C@@H](O)[C@H](O)[C@H]5O[C@H]5C[C@](C)(N)[C@H](O)[C@H](C)O5)Oc5ccc(cc5Cl)[C@H]4O)c4ccc(O)c(c4)-c4c(O)cc(O)cc43)nn1)NC2=O | 1.3 (≈ 0.437 µM) | – | – |
| CCCc1ccc(/C=C(/C)Cn2cc(CCCCCc3nc(N)[nH]c3-c3ccccc3)nn2)cc1 | – | 1420 | 2 |
| C/C(=C/c1ccccc1)Cn1cc(CCCCCc2nc(N)[nH]c2-c2cc(F)cc(F)c2)nn1 | – | 1340 | 2 |
| C/C(=C/c1ccccc1)Cn1cc(CCCCCc2nc(N)[nH]c2-c2ccc(C(C)C)cc2)nn1 | – | 1340 | 2 |
| CN[C@H](CC(C)C)C(=O)N[C@@H]1Cc2ccc(c(Cl)c2)Oc2cc3cc(c2O[C@@H]2O[C@H](CO)[C@@H](O)[C@H](O)[C@H]2O[C@H]2C[C@](C)(N)[C@H](O)[C@H](C)O2)Oc2ccc(cc2Cl)[C@@H](O)[C@@H]2NC(=O)[C@H](NC(=O)[C@@H]3NC(=O)[C@H](CC(=O)O)NC1=O)c1ccc(O)c(c1)-c1c(O)cc(O)cc1[C@H](C(=O)NCCc1cn(CCNC(=O)[C@@H]3NC(=O)[C@H]4NC(=O)[C@H](NC(=O)[C@@H]5NC(=O)[C@H](CC(=O)O)NC(=O)[C@H](NC(=O)[C@@H](CC(C)C)NC)Cc6ccc(c(Cl)c6)Oc6cc5cc(c6O[C@@H]5O[C@H](CO)[C@@H](O)[C@H](O)[C@H]5O[C@H]5C[C@](C)(N)[C@H](O)[C@H](C)O5)Oc5ccc(cc5Cl)[C@H]4O)c4ccc(O)c(c4)-c4c(O)cc(O)cc43)nn1)NC2=O | 1.3 (≈ 0.435 µM) | – | – |
| CN[C@H](CC(C)C)C(=O)N[C@@H]1Cc2ccc(c(Cl)c2)Oc2cc3cc(c2O[C@@H]2O[C@H](CO)[C@@H](O)[C@H](O)[C@H]2O[C@H]2C[C@](C)(N)[C@H](O)[C@H](C)O2)Oc2ccc(cc2Cl)[C@@H](O)[C@@H]2NC(=O)[C@H](NC(=O)[C@@H]3NC(=O)[C@H](CC(=O)O)NC1=O)c1ccc(O)c(c1)-c1c(O)cc(O)cc1[C@H](C(=O)NCCCCCc1cn(CCCCCNC(=O)[C@@H]3NC(=O)[C@H]4NC(=O)[C@H](NC(=O)[C@@H]5NC(=O)[C@H](CC(=O)O)NC(=O)[C@H](NC(=O)[C@@H](CC(C)C)NC)Cc6ccc(c(Cl)c6)Oc6cc5cc(c6O[C@@H]5O[C@H](CO)[C@@H](O)[C@H](O)[C@H]5O[C@H]5C[C@](C)(N)[C@H](O)[C@H](C)O5)Oc5ccc(cc5Cl)[C@H]4O)c4ccc(O)c(c4)-c4c(O)cc(O)cc43)nn1)NC2=O | 1.3 (≈ 0.423 µM) | – | – |
| C/C(=C/c1ccccc1)Cn1cc(CCCCCc2nc(N)[nH]c2-c2ccc(-c3ccccc3)cc2)nn1 | – | 1340 | 2 |
| C/C(=C/c1ccccc1)Cn1cc(CCCCCc2nc(N)[nH]c2-c2ccc(F)cc2)nn1 | – | 1340 | 2 |
| CN[C@H](CC(C)C)C(=O)N[C@@H]1Cc2ccc(c(Cl)c2)Oc2cc3cc(c2O[C@@H]2O[C@H](CO)[C@@H](O)[C@H](O)[C@H]2O[C@H]2C[C@](C)(N)[C@H](O)[C@H](C)O2)Oc2ccc(cc2Cl)[C@@H](O)[C@@H]2NC(=O)[C@H](NC(=O)[C@@H]3NC(=O)[C@H](CC(=O)O)NC1=O)c1ccc(O)c(c1)-c1c(O)cc(O)cc1[C@H](C(=O)NCCCn1cc(CNC(=O)[C@@H]3NC(=O)[C@H]4NC(=O)[C@H](NC(=O)[C@@H]5NC(=O)[C@H](CC(=O)O)NC(=O)[C@H](NC(=O)[C@@H](CC(C)C)NC)Cc6ccc(c(Cl)c6)Oc6cc5cc(c6O[C@@H]5O[C@H](CO)[C@@H](O)[C@H](O)[C@H]5O[C@H]5C[C@](C)(N)[C@H](O)[C@H](C)O5)Oc5ccc(cc5Cl)[C@H]4O)c4ccc(O)c(c4)-c4c(O)cc(O)cc43)nn1)NC2=O | 1.3 (≈ 0.435 µM) | – | – |
| C/C(=C/CC1CCCCC1)Cn1cc(CCCCCc2nc(N)[nH]c2-c2ccccc2)nn1 | – | 1420 | 2 |
